Common to all, as to assay type: functional, Cercopithecidae
Assay [1] has as its system Monkey. Nature of the assay: Compound was evaluated for the time from injection to peak inhibition of the twitch response at 0.2 mg/kg dose.
For assay [2], the system named is Monkey. The experiment in a line: Compound was evaluated for the dose producing 95% suppression of the twitch response in male Rhesus Monkey.
In assay [3] the test system is Monkey. The experiment in a line: Compound was evaluated for the time from injection to peak inhibition of the twitch response at 0.4 mg/kg dose.
For assay [4], the system named is Monkey. Nature of the assay: Compound was evaluated for the time from injection to recovery of the twitch to 95% of baseline at the ED95 dose.
Assay [5] relates to Monkey. The experiment in a line: Compound was evaluated for the time from injection to recovery of the twitch to 95% of baseline at 0.4 mg/kg dose.
The test system of assay [6] is Monkey. The experiment in a line: Compound was evaluated for the time from injection to peak inhibition of the twitch response at the ED95 dose.
For assay [7], the system named is Monkey. The experiment in a line: Compound was evaluated for the time from injection to recovery of the twitch to 95% of baseline at 0.2 mg/kg dose.
Where [8] appears, read: Cercopithecidae, in Macaca mulatta, read-out: ED95.

Structures are written as SMILES.

Turning to `COc1cc2c(cc1OC)[C@@H](Cc1cc(OC)c(OC)c(OC)c1)[N@+](C)(CCCOC(=O)/C=C(\Cl)C(=O)OCCC[N@+]1(C)CCc3cc(OC)c(OC)cc3[C@H]1Cc1cc(OC)c(OC)c(OC)c1)CC2.[Cl-].[Cl-]`, the figures for the Onset in the assay with Monkey [1], in the assay with Monkey [3] and in the assay on Monkey [6] were 36 s, 23 s and 73 s, respectively. In the assay with Monkey [2] (setting [8]), the ED95 worked out at 0.109 mg/kg. Further, the Duration in the assay on Monkey [4] is recorded as 8.7 min; with Monkey [5], 13.4 min; with Monkey [7] it was 9.78 min.
Turning to `COc1cc2c(cc1OC)[C@H](c1cc(OC)c(OC)c(OC)c1)[N@@+](C)(CCCOC(=O)/C=C(\Cl)C(=O)OCCC[N@+]1(C)CCc3cc(OC)c(OC)cc3[C@H]1Cc1cc(OC)c(OC)c(OC)c1)CC2.[Cl-].[Cl-]` (stereo in doubt; 6ab) [GANTACURIUM CHLORIDE], the Onset worked out at 44 s with Monkey [1] (0.2 mg/kg), 27 s in the assay with Monkey [3] (0.4 mg/kg) and 51 s in the assay on Monkey [6]. In the assay on Monkey [2], the ED95 worked out at 0.163 mg/kg. The Duration in the assay on Monkey [4] stood at 5.6 min; with Monkey [5] (0.4 mg/kg) it was 8.7 min; in the assay on Monkey [7] (0.2 mg/kg), 7.1 min.
Regarding `COc1cc2c(cc1OC)[C@@H](Cc1cc(OC)c(OC)c(OC)c1)[N+](C)(CCCOC(=O)CC/C=C/CCC(=O)OCCC[N+]1(C)CCc3cc(OC)c(OC)cc3[C@H]1Cc1cc(OC)c(OC)c(OC)c1)CC2.[Cl-].[Cl-]` (stereo partly specified) [MIVACURIUM CHLORIDE], in the assay with Monkey [2] (setting [8]), the ED95 was 0.062 mg/kg. Further, in the assay with Monkey [4], the Duration is recorded as 12 min. Moreover, the Onset in the assay with Monkey [6] is given as 107 s.
Take `COc1cc2c(cc1OC)[C@H](c1cc(OC)c(OC)c(OC)c1)[N@@+](C)(CCCOC(=O)/C=C(\Cl)C(=O)OCCC[N@@+]1(C)CCc3cc(OC)c(OC)cc3[C@@H]1c1cc(OC)c(OC)c(OC)c1)CC2.[Cl-].[Cl-]`: the ED95 with Monkey [2] (setting [8]) is 8.5 mg/kg. In the assay with Monkey [4], the Duration came to 11.2 min. The same compound registered an Onset with Monkey [6] of 55 s.
For the compound `COc1cc2c(cc1OC)[C@@H](c1cc(OC)c(OC)c(OC)c1)[N@+](C)(CCCOC(=O)/C=C/C(=O)OCCC[N@+]1(C)CCc3cc(OC)c(OC)cc3[C@H]1c1cc(OC)c(OC)c(OC)c1)CC2.[Cl-].[Cl-]`, the ED95 with Monkey [2] (setting [8]) turned out to be 1.55 mg/kg. In addition, the Duration in the assay on Monkey [4] was 25.5 min. Further, the Onset in the assay on Monkey [6] is reported as 144 s.
As for `COc1cc2c(cc1OC)[C@H](c1cc(OC)c(OC)c(OC)c1)[N@@+](C)(CCCOC(=O)/C=C(\Cl)C(=O)OCCC[N@+]1(C)CCc3cc(OC)c(OC)cc3[C@H]1Cc1cc(OC)c(OC)c(OC)c1)CC2.[Cl-].[Cl-]` (stereo in doubt; 6a) [GANTACURIUM CHLORIDE], the figures for the Onset with Monkey [1] (0.2 mg/kg), in the assay with Monkey [3] (0.4 mg/kg) and with Monkey [6] were 38 s, 25 s and 88 s, respectively. In the assay on Monkey [2], this compound displayed an ED95 of 0.063 mg/kg. The Duration in the assay on Monkey [5] (0.4 mg/kg) stood at 10 min; with Monkey [7] (0.2 mg/kg), 8.46 min.
On to `COc1cc2c(cc1OC)[C@H](c1cc(OC)c(OC)c(OC)c1)[N@@+](C)(CCCOC(=O)/C(Cl)=C/C(=O)OCCC[N@+]1(C)CCc3cc(OC)c(OC)cc3[C@H]1Cc1cc(OC)c(OC)c(OC)c1)CC2.[Cl-].[Cl-]`, for which the ED95 in the assay on Monkey [2] (setting [8]) was 0.25 mg/kg. In the assay with Monkey [4], this compound returned a Duration of 3.4 min. The same compound had an Onset with Monkey [6] of 52 s.
For `COc1cc2c(cc1OC)[C@@H](c1cc(OC)c(OC)c(OC)c1)[N@+](C)(CCCOC(=O)/C=C(\Cl)C(=O)OCCC[N@+]1(C)CCc3cc(OC)c(OC)cc3[C@H]1c1cc(OC)c(OC)c(OC)c1)CC2.[Cl-].[Cl-]`, in that order: 1.79 mg/kg, 5.1 min and 46 s.
For `C[N+](C)(C)CCOC(=O)CCC(=O)OCC[N+](C)(C)C.[Cl-].[Cl-]` [SUCCINYLCHOLINE CHLORIDE] the same measures were 1.29 mg/kg, 5 min and 50 s.
For `COc1cc2c(cc1OC)[C@@H](c1cc(OC)c(OC)c(OC)c1)[N@+](C)(CCCOC(=O)/C(Cl)=C/C(=O)OCCC[N@+]1(C)CCc3cc(OC)c(OC)cc3[C@H]1Cc1cc(OC)c(OC)c(OC)c1)CC2.[Cl-].[Cl-]`, in that order: 0.31 mg/kg, 3.7 min and 37 s.

These data come from ChEMBL document CHEMBL1132411, “Bis- and mixed-tetrahydroisoquinolinium chlorofumarates: new ultra-short-acting nondepolarizing neuromuscular blockers” (1999).
